In one test the test system is IL8. Briefly: serum IL8 levels by ELISA in patients. The class given is in vivo, human. The conditions noted are these: 3 patients. The text has this:
FIG. 1A-1C. IL8 is detectable in MDS/AML serum and correlated with disease severity. ELISA for IL8 was done on controls and MDS and AML patient serum samples. […] IL8 levels were increased after transformation of low risk MDS to higher risk MDS/AML (B) and decreased after treatment with 5-Azacytidine (C).
It was previously shown that IL8 mRNA is overexpressed in MDS and AML cells. It was now determined whether IL8 can be detected in serum of patients with MDS and AML. A total of 33 patients (MDS low risk (21), MDS high risk (6) and AML (6)) and 30 controls sera were collected and analyzed for IL8 levels by ELISA. […] Furthermore, IL8 levels went up in 3 patients that transformed from low risk MDS to higher risk MDS or AML (FIG. 1B). Additionally, IL8 levels dropped after treatment in another 3 patients that were treated with 5-Azacytidine (FIG. 1C).
On the technique in general: In an ELISA, binding on a coated surface is turned into a signal by an enzyme label.

The target of a further test is T1, CXCR2 (Homo sapiens, UniProt P25025).
T1 sequence (P25025 1-360): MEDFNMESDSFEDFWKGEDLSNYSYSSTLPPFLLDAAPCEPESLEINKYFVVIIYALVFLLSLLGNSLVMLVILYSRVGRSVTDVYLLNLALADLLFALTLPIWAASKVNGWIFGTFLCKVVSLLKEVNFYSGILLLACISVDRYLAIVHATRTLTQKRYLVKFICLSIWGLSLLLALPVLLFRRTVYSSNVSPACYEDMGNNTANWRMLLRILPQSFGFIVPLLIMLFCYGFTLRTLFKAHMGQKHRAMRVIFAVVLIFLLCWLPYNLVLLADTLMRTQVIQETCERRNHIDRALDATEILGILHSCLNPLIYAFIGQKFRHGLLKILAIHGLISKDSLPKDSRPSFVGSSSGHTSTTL
The conditions noted are these: cited from earlier work.

A further test relates to AML cell lines. The conditions noted are these: all AML cell lines; cited from earlier work.
For test [1], the system named is healthy control CD34+ cells. The conditions noted are these: cited from earlier work.
The subject of test [2] is primary samples from AML and high risk MDS cases. Particulars: cited from earlier work.
For test [3], the system named is primary AML patient cells. Briefly: AML cell engraftment in NSG mice pre-transplanted with doxycycline-induced hIL-8-transgenic bone marrow cells. The format is in vivo, mouse. Particulars: 4 months post-transplantation; for increase of AML cell engraftment vs uninduced control: p=0.0106, N=8. The text has this: FIG. 3. Xenotransplantation of primary AML cells into NSG mice pre-transplanted with hIL8-transgenic and doxycycline-induced congenic bone marrow cells leads to a more than 10-fold increase (p=0.0106, N=8) of AML cell engraftment.
We have generated a new transgenic mouse model in which we inserted a doxycycline-inducible human IL-8 transgene into the immunocompromised NSG mouse strain. We then performed congenic transplantation of hIL-8-transgenic bone marrow cells into 8 parental NSG mice, followed by doxycycline-triggered induction of hIL-8 in 4 of the recipient mice. 4 uninduced mice served as a control. We then xenotransplanted 5×10^6 leukemic cells from an AML patient into these animals and determined AML cell engraftment in the bone marrow 4 months post-transplantation. […] We have now a novel transgenic mouse system available that permits for the first time the generation of robust primary xenografts and PDX models from AML and MDS patients' cells, which can be used for drug development and testing purposes as well as functional/mechanistic studies.

The subject of test [4] is patient-derived xenografts from MDS/AML. Nature of the test: engraftment of patient-derived MDS/AML xenografts in NSG mice given exogenous recombinant human IL8. The format is in vivo, mouse. The conditions noted are these: for engraftment of primary MDS and AML patients' cells: 3 patient derived xenografts (1 AML, 2 MDS). The text has this: FIG. 2A-2E. Efficacy of human IL8 addition in patient-derived xenografts from MDS/AML. […] Averaged data in (C); data from individual subjects in (D). The improvement in engraftment is sustained (as shown for representative PDX) (E).

“Also recorded” adds a separate entry of the source.

For `Nc1ncn([C@@H]2O[C@H](CO)[C@@H](O)[C@H]2O)c(=O)n1` [5-Azacytidine], the “IL8 levels in serum after treatment” value with IL8 is “decreased; also recorded: dropped”.

Consider `NS(=O)(=O)c1c(Cl)ccc(NC(=O)Nc2cccc(Cl)c2Cl)c1O` [SB332235], for which the “selectivity for CXCR2 over CXCR1” value at CXCR2 was 100 fold. In addition, the proliferation result in the test on AML cell lines is “dose dependent decrease in proliferation”. In addition, the “growth of healthy control CD34+ cells” value in test [1] is listed as “only minimally affecting growth”. Moreover, the “proliferation in primary samples” value in test [2] was “significant inhibition of proliferation”.

For the compound “hIL-8: human IL-8 expressed from doxycycline-inducible transgene in transplanted bone marrow cells of NSG mice”, the “AML cell engraftment in the bone marrow (average)” value in test [3] (doxycycline-induced hIL-8, 5×10^6 leukemic cells) was determined as 42.2%. The “increase of AML cell engraftment vs uninduced control” value was 10.4 fold in test [3] and “more than 10 fold” in test [3] (listed as hIL8).

For “rhIL8: exogenous recombinant human IL8 injected into xenotransplant recipient mice”, the results for the “engraftment of primary MDS and AML patients' cells” value in test [4] and in test [4] (listed as IL8) were “increased engraftment” and “highly significant increase”, respectively. Besides, in test [4] (NSG mice, after 3 weeks of treatment, vs vehicle controls), the “engraftment from AML sample” value was “higher engraftment”.

Values taken from US20210355501A1, “INTERLEUKIN-8 FOR MAINTENANCE OF HUMAN ACUTE MYELOID LEUKEMIA AND MYELODYSPLASTIC SYNDROME AND USES THEREOF” (Albert Einstein College of Medicine, priority 2018, published 2021).
